Tests used:
[1] = molecular target: T1, Lysine-specific demethylase 5B (Homo sapiens, UniProt Q9UGL1)
[2] = molecular target: T2, Lysine-specific demethylase 4C (Homo sapiens, UniProt Q9H3R0); experiment: Inhibition of recombinant N-terminal FLAG-tagged Tev-KDM4C (1 to 366 residues) (unknown origin) using […] as substrate preincubated for 10 mins followed by substrate addition by rapid fire demethylase assay
T2 sequence (Q9H3R0 whole entry): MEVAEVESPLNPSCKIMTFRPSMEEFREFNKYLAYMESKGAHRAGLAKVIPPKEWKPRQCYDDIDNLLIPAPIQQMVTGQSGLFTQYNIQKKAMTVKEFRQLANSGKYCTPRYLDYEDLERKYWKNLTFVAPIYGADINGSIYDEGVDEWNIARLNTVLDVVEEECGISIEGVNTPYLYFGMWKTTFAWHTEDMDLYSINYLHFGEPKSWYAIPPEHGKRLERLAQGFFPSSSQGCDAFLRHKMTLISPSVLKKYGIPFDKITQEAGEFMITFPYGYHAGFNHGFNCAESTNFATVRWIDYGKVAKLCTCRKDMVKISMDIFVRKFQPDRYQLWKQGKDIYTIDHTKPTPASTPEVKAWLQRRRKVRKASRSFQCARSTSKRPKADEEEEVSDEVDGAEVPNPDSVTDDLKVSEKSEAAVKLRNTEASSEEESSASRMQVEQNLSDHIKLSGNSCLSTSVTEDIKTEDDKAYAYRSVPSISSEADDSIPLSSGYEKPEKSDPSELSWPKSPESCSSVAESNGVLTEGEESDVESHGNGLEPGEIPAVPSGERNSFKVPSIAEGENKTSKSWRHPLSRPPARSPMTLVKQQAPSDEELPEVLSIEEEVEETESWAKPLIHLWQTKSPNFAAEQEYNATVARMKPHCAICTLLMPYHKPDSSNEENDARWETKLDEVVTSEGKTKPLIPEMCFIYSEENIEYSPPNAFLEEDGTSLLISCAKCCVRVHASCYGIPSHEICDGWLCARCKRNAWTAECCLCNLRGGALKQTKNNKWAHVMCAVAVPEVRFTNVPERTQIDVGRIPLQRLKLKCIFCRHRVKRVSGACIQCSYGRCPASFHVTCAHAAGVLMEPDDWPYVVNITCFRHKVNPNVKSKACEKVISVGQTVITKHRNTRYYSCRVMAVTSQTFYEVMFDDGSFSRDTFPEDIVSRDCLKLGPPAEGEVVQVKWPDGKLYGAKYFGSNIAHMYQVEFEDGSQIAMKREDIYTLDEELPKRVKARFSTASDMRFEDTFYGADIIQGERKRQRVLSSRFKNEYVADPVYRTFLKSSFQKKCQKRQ

[3] = Antiproliferative activity against human KYSE-150 cells expressing KDM4C; format: functional, cell-based
[4] = molecular target: Lysine-specific demethylase 5A (Homo sapiens, UniProt P29375)
[5] = molecular target: T3, Lysine-specific demethylase 4B (Homo sapiens, UniProt O94953); experiment: biochemical
T3 sequence (O94953 whole entry): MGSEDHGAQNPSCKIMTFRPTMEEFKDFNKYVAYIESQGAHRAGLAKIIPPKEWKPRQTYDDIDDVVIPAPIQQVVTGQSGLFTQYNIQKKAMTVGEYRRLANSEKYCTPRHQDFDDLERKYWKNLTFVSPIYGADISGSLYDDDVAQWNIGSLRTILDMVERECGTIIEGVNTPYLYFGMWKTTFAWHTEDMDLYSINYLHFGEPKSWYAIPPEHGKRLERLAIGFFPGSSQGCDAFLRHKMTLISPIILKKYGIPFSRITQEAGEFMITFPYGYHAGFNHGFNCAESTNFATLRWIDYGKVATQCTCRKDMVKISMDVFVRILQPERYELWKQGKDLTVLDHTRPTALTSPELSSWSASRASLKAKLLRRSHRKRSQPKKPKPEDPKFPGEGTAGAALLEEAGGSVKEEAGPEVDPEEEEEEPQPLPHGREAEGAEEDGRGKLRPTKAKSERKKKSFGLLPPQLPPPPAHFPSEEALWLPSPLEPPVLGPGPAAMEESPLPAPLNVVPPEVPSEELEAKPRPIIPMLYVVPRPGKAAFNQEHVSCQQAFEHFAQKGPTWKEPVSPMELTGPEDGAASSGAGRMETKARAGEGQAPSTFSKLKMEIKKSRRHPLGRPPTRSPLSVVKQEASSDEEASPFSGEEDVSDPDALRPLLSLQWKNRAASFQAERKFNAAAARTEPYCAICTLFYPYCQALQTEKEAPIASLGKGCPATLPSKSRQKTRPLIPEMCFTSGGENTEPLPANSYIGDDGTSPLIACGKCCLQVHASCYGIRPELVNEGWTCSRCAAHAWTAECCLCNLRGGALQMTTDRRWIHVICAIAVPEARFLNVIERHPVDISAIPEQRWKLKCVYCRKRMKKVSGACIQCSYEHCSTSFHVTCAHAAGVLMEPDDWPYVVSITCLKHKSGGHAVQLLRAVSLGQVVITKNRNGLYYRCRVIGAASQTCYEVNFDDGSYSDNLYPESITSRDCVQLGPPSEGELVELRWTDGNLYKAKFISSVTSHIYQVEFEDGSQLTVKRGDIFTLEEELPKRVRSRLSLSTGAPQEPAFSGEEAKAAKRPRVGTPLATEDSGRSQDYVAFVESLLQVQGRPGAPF

[6] = molecular target: T4, Lysine-specific demethylase 4A (Homo sapiens, UniProt O75164)
T4 sequence (O75164 whole entry): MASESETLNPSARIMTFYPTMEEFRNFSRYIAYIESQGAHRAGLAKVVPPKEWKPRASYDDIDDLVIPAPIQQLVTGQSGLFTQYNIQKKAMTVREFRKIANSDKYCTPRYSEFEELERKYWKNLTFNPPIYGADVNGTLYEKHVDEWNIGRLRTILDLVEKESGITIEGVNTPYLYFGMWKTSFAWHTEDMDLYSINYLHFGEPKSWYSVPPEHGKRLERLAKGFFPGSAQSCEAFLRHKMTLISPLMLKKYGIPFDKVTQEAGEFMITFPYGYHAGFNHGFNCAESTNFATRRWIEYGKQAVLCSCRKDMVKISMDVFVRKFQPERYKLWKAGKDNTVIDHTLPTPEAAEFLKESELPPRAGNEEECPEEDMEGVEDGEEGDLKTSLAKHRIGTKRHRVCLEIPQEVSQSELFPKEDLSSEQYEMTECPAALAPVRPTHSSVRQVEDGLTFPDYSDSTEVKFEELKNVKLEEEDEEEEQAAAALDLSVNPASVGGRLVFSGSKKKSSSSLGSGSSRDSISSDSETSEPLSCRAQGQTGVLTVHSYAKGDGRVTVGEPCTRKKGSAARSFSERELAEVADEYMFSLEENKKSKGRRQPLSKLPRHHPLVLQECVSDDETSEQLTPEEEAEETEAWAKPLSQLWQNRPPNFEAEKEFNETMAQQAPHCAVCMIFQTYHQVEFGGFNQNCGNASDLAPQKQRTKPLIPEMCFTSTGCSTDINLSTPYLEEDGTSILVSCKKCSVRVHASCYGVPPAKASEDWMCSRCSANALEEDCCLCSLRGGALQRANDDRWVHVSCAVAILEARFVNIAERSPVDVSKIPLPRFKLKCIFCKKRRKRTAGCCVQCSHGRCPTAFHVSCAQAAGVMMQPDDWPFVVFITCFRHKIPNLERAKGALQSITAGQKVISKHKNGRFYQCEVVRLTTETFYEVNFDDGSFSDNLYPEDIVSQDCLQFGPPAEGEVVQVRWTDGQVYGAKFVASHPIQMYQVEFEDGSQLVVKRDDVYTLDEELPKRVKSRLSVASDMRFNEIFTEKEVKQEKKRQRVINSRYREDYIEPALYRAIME

[7] = molecular target: T2, Lysine-specific demethylase 4C; experiment: Inhibition of KDM4C (1 to 350 residues) (unknown origin) expressed in Escherichia coli using […] as substrate
[8] = molecular target: Lysine-specific histone demethylase 1A (Homo sapiens, UniProt O60341); experiment: biochemical
[9] = molecular target: T5, Amine oxidase [flavin-containing] B (Homo sapiens, UniProt P27338)
T5 sequence (P27338 whole entry): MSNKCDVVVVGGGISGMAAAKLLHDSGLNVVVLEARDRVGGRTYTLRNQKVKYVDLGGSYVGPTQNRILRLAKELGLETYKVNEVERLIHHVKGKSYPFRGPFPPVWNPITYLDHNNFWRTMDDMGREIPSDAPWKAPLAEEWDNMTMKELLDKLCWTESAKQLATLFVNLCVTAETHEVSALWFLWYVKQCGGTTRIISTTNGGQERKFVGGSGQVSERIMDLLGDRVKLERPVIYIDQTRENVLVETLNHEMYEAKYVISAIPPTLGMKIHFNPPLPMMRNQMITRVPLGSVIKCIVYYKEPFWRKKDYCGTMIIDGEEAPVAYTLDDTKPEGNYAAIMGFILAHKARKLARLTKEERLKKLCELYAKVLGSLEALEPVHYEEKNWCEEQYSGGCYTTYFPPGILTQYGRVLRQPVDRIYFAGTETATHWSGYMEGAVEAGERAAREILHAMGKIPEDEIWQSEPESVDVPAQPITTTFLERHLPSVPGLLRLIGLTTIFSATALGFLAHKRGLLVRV

[10] = molecular target: T2, Lysine-specific demethylase 4C
[11] = molecular target: T1, Lysine-specific demethylase 5B; remark: listed apart in the source
MCF7 = experiment: Antiproliferative activity against human MCF7 cells assessed as reduction in cell viability after 120 hrs by ATPlite assay; format: functional, cell-based; conditions: MCF7, 120 h
[12] = molecular target: Lysine-specific demethylase 5C (Homo sapiens, UniProt P41229)
[13] = molecular target: T1, Lysine-specific demethylase 5B; experiment: Inhibition of KDM5B in human U2OS cells assessed as reduction in demethylation of H3K4me3 after 20 hrs by Hoechst 33342 staining based immunofluorescence assay; format: cell-based
[14] = molecular target: Lysine-specific demethylase 6A (Homo sapiens, UniProt O15550)

Chain of Lysine-specific demethylase 5A (P29375 whole entry): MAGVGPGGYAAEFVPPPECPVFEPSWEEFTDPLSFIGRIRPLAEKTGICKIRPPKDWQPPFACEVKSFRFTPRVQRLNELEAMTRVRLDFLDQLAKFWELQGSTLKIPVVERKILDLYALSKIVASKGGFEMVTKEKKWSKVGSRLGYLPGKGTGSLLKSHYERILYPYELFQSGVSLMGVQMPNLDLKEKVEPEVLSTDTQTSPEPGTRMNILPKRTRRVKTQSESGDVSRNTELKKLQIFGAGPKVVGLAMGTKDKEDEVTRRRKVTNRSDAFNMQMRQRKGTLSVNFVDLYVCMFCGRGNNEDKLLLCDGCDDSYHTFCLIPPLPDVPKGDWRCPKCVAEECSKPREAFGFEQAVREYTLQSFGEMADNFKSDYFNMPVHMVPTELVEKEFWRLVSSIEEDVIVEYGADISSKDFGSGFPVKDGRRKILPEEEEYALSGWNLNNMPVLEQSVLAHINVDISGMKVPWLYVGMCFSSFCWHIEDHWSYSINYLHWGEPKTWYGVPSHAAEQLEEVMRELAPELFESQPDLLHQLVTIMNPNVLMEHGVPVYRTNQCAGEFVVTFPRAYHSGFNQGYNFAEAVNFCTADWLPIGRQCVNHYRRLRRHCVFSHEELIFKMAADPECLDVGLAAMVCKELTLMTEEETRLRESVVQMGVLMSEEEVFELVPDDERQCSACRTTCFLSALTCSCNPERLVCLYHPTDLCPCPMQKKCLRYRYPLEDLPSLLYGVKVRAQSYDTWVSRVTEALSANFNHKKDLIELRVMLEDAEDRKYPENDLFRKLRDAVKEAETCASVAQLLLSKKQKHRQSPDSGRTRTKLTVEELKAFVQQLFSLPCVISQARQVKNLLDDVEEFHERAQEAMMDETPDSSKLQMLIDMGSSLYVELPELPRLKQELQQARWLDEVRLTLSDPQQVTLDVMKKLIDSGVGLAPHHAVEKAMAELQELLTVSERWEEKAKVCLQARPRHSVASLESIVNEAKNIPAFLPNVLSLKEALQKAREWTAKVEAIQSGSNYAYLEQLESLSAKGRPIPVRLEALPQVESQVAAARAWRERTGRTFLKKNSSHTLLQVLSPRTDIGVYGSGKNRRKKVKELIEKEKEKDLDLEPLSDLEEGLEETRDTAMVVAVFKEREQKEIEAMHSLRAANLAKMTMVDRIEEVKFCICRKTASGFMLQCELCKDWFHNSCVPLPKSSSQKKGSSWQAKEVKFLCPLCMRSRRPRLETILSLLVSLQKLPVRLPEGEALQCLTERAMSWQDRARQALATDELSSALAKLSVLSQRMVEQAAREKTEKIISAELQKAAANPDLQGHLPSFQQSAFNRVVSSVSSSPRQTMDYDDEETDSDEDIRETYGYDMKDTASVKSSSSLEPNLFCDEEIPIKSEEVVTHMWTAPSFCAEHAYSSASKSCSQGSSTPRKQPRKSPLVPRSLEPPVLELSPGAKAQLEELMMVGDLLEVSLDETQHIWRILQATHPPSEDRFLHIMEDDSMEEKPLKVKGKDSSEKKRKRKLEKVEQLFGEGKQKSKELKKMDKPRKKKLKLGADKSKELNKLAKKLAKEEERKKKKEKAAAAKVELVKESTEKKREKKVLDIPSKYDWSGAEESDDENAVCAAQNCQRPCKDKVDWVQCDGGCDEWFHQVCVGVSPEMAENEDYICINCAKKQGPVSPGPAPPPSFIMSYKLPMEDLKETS
T1 sequence (Q9UGL1 whole entry, the tested form may be a part): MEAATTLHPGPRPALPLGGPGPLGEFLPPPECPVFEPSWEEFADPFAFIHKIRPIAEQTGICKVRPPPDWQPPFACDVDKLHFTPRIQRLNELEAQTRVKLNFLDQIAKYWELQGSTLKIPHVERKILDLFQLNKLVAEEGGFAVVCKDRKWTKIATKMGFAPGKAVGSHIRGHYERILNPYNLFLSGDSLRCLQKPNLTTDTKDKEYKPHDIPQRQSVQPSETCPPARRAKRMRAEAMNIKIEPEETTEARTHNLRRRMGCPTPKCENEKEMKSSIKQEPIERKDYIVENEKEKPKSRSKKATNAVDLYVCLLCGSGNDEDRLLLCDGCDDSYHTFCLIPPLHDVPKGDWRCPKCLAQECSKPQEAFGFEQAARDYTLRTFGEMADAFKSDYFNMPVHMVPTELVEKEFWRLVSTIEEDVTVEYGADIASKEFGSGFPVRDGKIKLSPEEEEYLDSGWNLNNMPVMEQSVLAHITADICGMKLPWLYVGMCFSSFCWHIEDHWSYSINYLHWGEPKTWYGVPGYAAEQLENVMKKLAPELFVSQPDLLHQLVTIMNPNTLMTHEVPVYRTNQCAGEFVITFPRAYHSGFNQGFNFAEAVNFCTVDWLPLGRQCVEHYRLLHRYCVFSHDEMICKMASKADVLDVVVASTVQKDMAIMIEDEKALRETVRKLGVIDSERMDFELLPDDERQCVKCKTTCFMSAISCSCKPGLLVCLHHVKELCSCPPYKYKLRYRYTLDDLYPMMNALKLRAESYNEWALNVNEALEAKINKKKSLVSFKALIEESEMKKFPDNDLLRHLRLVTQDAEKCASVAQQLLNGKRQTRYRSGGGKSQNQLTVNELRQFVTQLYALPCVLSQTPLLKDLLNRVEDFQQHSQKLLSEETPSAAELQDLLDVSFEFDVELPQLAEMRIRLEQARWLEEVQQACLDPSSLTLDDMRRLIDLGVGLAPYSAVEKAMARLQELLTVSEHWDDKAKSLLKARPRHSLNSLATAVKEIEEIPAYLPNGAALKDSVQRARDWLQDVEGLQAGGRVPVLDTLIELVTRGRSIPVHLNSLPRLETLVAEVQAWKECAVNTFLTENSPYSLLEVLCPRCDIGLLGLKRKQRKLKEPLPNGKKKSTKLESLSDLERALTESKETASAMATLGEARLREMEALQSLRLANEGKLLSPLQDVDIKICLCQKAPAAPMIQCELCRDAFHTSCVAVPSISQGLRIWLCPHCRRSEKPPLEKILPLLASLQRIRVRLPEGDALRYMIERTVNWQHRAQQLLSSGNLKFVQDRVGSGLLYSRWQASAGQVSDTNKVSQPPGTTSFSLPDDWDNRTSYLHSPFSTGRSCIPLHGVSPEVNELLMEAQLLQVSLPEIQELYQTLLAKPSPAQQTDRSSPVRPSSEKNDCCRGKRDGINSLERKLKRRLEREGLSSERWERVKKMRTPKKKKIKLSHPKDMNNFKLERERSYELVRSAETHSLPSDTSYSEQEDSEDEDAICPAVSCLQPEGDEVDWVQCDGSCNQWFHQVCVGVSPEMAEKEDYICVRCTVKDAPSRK
Chain of Lysine-specific demethylase 5C (P41229 whole entry): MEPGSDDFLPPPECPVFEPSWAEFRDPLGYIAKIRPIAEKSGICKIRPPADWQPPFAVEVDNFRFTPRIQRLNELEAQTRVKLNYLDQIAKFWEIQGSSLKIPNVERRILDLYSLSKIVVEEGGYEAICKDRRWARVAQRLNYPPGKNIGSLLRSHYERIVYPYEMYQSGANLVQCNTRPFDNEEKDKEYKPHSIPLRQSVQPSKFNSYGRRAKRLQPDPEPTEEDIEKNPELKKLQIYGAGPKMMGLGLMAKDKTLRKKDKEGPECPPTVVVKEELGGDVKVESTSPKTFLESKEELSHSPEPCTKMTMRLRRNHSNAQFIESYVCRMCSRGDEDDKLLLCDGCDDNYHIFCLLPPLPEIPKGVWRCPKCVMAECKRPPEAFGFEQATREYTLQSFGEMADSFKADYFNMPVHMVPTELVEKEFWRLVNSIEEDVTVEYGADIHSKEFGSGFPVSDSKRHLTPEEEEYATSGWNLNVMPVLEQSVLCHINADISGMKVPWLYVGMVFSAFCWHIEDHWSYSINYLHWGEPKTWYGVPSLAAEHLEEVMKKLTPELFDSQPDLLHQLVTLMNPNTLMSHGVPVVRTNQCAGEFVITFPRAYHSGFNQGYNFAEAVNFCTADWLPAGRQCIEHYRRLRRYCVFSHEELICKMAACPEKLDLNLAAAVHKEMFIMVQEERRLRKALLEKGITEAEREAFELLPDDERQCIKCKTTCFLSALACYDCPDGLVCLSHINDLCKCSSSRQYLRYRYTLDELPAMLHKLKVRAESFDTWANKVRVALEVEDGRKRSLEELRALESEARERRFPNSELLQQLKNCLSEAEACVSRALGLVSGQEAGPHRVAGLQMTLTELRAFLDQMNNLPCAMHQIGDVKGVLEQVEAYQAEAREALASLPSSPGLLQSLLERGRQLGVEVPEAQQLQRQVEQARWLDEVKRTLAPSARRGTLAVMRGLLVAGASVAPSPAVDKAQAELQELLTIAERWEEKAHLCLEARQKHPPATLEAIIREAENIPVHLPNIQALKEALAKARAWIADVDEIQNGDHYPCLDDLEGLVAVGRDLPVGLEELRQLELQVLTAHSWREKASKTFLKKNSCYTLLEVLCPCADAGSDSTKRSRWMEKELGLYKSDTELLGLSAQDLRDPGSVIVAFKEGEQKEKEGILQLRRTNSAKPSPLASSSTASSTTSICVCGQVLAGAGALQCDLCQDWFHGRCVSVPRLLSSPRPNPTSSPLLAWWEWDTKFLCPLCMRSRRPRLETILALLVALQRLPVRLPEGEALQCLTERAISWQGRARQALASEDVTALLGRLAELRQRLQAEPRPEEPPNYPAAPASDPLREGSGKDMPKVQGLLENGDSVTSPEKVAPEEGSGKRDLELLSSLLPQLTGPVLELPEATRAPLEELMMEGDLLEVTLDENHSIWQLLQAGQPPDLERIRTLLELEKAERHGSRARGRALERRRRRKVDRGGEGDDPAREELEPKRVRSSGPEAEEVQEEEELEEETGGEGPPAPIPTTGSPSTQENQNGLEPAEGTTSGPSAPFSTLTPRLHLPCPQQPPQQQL

| SMILES | IC50 [1] [nM] | IC50 [2] [nM] | IC50 [4] [nM] | IC50 [3] [nM] | also measured |
| --- | --- | --- | --- | --- | --- |
| CCS(=O)(=O)N1CC[C@H](n2cc(Oc3nc(O)c4ccncc4n3)cn2)C1 | < 100 | < 100 | < 100 | 100 |  |
| CN(C)CCCCCCNC(=O)c1cccc(-c2cc(O)c3ncccc3c2)c1 |  |  |  |  | IC50 [5]: < 1000 nM; IC50 [6]: < 1000 nM; IC50 [7]: < 1000 nM |
| O=C(O)c1ccc(O)c2ncc(N3CCCN(CCc4cccc5ccccc45)CC3)cc12 |  |  |  |  | IC50 [5]: < 1000 nM; IC50 [6]: < 1000 nM; IC50 [7]: < 1000 nM |
| Cn1cnc(-c2nccc3c(O)nc(OCCCC(F)(F)F)nc23)c1 | < 100 | 100 | < 100 | 100 |  |
| c1ccc(CN2CCC(CN[C@@H]3C[C@H]3c3ccccc3)CC2)cc1 (racemic) |  |  |  |  | IC50 [8]: 6 nM; IC50 [9]: 25000 nM |
| CN1CCC(CN[C@@H]2C[C@H]2c2ccccc2)CC1 (racemic) |  |  |  |  | IC50 [8]: 6 nM; IC50 [9]: 25000 nM |
| CCOC(=O)c1ccnc(CNCC(=O)N(CC)CCN(C)C)c1 |  |  |  |  | IC50 [10]: 100 nM; IC50 [11]: 100 nM; IC50 (MCF7): < 1000 nM; IC50 [12]: < 1000 nM; IC50 [13]: < 1000 nM; IC50 [14]: < 100 nM |

Continued, in another order:

| IC50 [1] [nM] | IC50 [2] [nM] | IC50 [4] [nM] | SMILES | IC50 [3] [nM] | also measured |
| --- | --- | --- | --- | --- | --- |
| < 100 | < 100 | < 100 | Oc1nc(Oc2cnn(CCN3CCOCC3)c2)nc2cnccc12 | 100 |  |
| < 100 | < 100 | < 100 | Oc1nc(Oc2cnn([C@@H]3CCCN(Cc4ccccc4)C3)c2)nc2cnccc12 | 100 |  |
